# Like-named read-outs stand apart in the source and are kept apart here.
# Tests used:
# Experiment in all cases: Kinase selectivity, P33-radiolabeled assay
# Assay type in all cases: biochemical
# Settings in all cases: 10 μM ATP
# AKT1 = biological target: T1, AKT1 (Homo sapiens, UniProt P31749)
# T1 construct: purchased Reaction Biology Corp
# How it was run: (§1)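 Reactions contained 10 μM ATP and 10 μM test compound, each run in duplicate. Kinase activity is expressed as a percentage of DMSO-treated controls.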
# FER = biological target: T2, FER (Homo sapiens, UniProt P16591)
# T2 construct: purchased Reaction Biology Corp
# T2 sequence (P16591 whole entry): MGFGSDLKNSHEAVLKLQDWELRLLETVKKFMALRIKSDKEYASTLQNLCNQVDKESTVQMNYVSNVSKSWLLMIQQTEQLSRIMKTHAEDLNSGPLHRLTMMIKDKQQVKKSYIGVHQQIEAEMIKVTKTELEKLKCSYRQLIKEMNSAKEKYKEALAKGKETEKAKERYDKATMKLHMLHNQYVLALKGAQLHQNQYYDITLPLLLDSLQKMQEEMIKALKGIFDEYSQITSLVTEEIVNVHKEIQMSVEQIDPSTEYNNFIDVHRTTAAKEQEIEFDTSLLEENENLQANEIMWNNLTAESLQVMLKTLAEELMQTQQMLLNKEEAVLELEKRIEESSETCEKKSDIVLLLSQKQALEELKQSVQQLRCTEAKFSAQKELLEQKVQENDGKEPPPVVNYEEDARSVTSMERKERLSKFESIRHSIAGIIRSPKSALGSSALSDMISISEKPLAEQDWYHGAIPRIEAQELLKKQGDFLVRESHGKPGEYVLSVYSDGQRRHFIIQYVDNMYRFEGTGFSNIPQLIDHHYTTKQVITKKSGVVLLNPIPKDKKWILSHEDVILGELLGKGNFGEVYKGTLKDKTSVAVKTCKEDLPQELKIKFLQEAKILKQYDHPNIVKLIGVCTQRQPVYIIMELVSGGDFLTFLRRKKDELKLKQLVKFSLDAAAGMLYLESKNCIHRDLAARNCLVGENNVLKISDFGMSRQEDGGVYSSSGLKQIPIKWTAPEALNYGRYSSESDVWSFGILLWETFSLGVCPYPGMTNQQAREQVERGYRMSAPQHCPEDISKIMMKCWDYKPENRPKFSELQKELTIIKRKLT
# How it was run: as §1
# GRK5 = biological target: T3, GRK5 (Homo sapiens, UniProt P34947)
# T3 construct: purchased Reaction Biology Corp
# T3 sequence (P34947 whole entry): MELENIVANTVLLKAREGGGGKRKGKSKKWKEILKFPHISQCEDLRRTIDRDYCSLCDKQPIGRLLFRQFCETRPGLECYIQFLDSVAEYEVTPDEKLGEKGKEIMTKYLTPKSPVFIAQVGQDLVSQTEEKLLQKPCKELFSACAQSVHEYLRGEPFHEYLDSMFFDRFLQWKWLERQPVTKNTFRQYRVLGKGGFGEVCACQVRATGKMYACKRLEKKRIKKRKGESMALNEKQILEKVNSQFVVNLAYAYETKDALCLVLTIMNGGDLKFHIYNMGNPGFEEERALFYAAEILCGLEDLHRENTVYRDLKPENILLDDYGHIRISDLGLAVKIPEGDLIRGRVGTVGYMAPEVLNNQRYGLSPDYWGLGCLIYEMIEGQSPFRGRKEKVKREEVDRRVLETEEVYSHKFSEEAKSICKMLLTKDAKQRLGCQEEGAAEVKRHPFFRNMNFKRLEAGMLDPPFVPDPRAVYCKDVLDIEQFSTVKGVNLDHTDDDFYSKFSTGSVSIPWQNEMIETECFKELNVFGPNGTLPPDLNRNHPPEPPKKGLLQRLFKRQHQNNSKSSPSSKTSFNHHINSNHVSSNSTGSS
# How it was run: as §1
# MINK/MINK1 = biological target: T4, MINK/MINK1 (Homo sapiens, UniProt Q8N4C8)
# T4 construct: purchased Reaction Biology Corp
# How it was run: as §1
# NEK1 = biological target: T5, NEK1 (Homo sapiens, UniProt Q96PY6)
# T5 construct: purchased Reaction Biology Corp
# T5 sequence (Q96PY6 1-1258): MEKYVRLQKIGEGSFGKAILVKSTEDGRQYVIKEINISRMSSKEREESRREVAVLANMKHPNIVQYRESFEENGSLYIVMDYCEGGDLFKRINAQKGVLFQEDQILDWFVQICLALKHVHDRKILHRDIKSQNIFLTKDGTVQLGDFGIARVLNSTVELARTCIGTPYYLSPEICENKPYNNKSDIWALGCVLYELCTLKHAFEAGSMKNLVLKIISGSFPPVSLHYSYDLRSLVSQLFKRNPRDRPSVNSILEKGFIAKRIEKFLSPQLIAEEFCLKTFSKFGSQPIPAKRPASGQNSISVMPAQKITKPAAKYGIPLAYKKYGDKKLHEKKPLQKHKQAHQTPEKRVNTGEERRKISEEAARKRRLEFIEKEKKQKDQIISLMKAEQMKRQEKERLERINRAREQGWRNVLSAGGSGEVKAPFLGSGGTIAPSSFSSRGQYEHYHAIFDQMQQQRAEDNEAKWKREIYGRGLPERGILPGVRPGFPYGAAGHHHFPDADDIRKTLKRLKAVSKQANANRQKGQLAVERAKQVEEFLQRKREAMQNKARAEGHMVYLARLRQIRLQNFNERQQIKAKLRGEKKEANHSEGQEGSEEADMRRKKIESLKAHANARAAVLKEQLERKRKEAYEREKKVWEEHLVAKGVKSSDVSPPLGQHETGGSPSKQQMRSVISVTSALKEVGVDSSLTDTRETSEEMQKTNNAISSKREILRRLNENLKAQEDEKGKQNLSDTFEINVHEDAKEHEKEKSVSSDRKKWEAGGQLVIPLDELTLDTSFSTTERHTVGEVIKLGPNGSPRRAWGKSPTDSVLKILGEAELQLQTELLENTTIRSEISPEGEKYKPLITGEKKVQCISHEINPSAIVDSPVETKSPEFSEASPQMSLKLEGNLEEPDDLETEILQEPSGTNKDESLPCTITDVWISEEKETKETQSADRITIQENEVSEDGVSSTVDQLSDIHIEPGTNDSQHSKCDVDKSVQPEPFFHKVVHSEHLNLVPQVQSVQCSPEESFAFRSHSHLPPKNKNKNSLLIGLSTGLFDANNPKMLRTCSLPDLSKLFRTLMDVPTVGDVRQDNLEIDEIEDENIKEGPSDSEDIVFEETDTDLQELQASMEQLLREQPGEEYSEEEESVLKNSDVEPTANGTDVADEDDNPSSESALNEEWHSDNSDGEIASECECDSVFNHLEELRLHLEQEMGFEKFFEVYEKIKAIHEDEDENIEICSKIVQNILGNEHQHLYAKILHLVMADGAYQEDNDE
# How it was run: as §1
# PDGFRa = biological target: T6, PDGFRa (Homo sapiens, UniProt P16234)
# T6 construct: purchased Reaction Biology Corp
# T6 sequence (P16234 24-1089): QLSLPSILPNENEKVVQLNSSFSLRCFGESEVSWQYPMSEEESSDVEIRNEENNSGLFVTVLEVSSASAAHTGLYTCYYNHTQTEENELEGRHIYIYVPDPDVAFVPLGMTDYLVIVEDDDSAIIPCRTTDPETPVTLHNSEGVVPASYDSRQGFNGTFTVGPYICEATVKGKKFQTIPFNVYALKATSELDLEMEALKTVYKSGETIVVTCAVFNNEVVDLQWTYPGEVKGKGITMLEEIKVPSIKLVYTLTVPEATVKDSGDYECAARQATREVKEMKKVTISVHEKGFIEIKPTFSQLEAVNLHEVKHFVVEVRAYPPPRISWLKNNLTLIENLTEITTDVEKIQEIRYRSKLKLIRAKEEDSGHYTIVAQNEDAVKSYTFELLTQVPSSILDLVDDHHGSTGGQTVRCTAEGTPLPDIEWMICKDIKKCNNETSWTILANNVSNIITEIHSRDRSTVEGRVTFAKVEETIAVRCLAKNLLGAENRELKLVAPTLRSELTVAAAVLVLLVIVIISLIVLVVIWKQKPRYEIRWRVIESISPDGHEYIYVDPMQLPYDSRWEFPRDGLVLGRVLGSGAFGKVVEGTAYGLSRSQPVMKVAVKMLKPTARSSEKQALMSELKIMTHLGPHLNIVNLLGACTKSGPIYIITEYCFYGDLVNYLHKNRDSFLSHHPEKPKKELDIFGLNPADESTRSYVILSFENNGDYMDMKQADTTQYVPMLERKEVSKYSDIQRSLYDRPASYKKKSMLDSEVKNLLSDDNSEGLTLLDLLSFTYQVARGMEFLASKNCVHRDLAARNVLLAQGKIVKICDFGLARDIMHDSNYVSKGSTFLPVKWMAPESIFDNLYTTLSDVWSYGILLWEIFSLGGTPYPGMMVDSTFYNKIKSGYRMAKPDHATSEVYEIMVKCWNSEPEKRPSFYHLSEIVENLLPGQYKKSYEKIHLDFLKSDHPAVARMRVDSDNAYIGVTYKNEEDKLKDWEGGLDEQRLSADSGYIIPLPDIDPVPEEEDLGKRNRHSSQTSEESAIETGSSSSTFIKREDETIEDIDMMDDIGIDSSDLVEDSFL
# How it was run: as §1
# RIPK2 = biological target: T7, RIPK2 (Homo sapiens, UniProt O43353)
# T7 construct: purchased Reaction Biology Corp
# How it was run: as §1
# SGK1 = biological target: T8, SGK1 (Homo sapiens, UniProt O00141)
# T8 construct: purchased Reaction Biology Corp
# T8 sequence (O00141 1-431): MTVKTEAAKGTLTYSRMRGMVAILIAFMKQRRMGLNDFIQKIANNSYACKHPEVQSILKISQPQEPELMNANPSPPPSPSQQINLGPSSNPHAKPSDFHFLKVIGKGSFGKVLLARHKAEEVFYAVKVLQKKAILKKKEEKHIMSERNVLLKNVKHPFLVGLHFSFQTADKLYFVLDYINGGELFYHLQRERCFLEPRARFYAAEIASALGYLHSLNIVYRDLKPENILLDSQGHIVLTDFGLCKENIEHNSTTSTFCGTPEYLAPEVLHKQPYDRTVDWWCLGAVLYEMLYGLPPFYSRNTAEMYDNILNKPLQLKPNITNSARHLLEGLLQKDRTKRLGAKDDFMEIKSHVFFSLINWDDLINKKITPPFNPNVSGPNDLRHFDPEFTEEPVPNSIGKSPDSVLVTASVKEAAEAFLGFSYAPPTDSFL
# How it was run: as §1
# SLK/STK2 = biological target: T9, SLK/STK2 (Homo sapiens, UniProt Q9H2G2)
# T9 construct: purchased Reaction Biology Corp
# T9 sequence (Q9H2G2 whole entry): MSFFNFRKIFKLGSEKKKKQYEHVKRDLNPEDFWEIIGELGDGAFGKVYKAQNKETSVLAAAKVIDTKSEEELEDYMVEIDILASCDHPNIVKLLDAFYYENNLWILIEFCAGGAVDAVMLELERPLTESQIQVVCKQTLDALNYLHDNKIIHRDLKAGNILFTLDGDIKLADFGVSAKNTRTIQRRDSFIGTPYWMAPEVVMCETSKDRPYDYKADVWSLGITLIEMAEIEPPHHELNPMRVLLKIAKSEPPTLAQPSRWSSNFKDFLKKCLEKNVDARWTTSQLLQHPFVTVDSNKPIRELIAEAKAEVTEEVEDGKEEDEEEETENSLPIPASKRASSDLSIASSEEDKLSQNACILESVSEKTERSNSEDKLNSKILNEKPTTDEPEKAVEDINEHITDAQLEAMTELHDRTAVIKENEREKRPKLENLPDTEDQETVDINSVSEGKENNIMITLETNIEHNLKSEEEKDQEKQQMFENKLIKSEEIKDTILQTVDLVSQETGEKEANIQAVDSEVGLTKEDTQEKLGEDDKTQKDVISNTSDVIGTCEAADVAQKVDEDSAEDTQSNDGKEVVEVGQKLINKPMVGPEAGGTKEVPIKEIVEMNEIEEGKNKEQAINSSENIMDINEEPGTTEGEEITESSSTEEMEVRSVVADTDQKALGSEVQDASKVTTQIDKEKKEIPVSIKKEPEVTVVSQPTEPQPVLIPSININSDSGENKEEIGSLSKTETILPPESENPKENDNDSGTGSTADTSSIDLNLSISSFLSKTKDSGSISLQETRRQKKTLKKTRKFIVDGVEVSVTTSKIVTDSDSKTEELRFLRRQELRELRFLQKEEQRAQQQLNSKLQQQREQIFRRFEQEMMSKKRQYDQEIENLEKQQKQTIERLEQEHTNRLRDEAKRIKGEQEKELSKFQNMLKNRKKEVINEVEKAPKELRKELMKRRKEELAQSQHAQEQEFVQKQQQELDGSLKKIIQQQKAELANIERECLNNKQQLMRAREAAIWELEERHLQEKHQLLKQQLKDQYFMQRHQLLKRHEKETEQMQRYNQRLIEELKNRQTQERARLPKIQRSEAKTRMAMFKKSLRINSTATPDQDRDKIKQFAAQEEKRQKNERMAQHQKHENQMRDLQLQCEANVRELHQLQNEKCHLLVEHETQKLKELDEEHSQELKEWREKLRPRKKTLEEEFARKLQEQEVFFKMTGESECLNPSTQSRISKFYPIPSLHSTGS
# How it was run: as §1
# ZAK/MLTK = biological target: T10, ZAK/MLTK (Homo sapiens, UniProt Q9NYL2)
# T10 construct: purchased Reaction Biology Corp
# T10 sequence (Q9NYL2 whole entry): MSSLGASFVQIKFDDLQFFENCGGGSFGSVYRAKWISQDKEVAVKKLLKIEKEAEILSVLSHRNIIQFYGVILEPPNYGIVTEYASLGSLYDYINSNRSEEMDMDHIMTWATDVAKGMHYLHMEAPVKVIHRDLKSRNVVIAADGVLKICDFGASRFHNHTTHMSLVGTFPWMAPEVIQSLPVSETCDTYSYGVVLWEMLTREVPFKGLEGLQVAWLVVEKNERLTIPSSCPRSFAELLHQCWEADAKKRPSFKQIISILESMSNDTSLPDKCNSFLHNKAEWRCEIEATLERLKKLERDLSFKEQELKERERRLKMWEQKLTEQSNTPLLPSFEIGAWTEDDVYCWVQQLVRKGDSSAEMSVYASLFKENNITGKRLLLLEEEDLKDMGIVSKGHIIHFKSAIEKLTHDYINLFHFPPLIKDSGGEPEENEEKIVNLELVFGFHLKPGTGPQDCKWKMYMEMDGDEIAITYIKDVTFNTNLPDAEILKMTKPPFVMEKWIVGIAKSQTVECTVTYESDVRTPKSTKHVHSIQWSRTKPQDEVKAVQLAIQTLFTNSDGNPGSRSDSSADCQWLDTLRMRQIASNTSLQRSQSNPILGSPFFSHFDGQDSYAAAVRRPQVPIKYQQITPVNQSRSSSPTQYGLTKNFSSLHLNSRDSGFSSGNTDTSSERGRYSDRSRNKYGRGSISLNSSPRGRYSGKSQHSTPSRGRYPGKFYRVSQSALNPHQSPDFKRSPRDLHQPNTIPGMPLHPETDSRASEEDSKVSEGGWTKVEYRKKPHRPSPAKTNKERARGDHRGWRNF
# How it was run: as §1
# [1] = read-out: % Enzyme Activity (relative to DMSO controls) AVG
# [2] = read-out: % Enzyme Activity (relative to DMSO controls) Data 1
# [3] = read-out: % Enzyme Activity (relative to DMSO controls) Data 2
# T1 sequence (P31749 whole entry): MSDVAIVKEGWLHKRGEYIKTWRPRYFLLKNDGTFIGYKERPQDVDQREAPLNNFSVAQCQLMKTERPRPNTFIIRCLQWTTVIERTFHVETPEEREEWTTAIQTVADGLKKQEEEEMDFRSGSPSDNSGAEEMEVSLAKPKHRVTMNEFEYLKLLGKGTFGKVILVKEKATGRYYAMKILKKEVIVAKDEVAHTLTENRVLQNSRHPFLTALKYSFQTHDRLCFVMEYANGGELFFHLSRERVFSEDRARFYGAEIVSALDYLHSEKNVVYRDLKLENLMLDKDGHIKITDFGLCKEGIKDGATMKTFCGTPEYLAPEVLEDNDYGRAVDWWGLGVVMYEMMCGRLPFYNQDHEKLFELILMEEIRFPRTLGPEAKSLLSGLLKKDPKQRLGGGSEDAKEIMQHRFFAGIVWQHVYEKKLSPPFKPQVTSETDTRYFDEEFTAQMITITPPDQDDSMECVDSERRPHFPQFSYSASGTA
structure (smiles),measurement,setting,value
CC(C)(C)C(=O)N1N=CC[C@H]1c1ccccc1 [GSK′963],remaining activity at 10 µM,AKT1; [1],100%
same,remaining activity at 10 µM,AKT1; [2],102%
same,remaining activity at 10 µM,AKT1; [3],98.8%
same,remaining activity at 10 µM,FER; [1],107%
same,remaining activity at 10 µM,FER; [2],109%
same,remaining activity at 10 µM,FER; [3],105%
same,remaining activity at 10 µM,GRK5; [1],99.4%
same,remaining activity at 10 µM,GRK5; [2],98.2%
same,remaining activity at 10 µM,GRK5; [3],101%
same,remaining activity at 10 µM,MINK/MINK1; [1],90.2%
same,remaining activity at 10 µM,MINK/MINK1; [2],89.8%
same,remaining activity at 10 µM,MINK/MINK1; [3],90.6%
same,remaining activity at 10 µM,NEK1; [1],97.5%
same,remaining activity at 10 µM,NEK1; [2],97.1%
same,remaining activity at 10 µM,NEK1; [3],98%
same,remaining activity at 10 µM,PDGFRa; [1],104%
same,remaining activity at 10 µM,PDGFRa; [2],101%
same,remaining activity at 10 µM,PDGFRa; [3],106%
same,remaining activity at 10 µM,RIPK2; [1],110%
same,remaining activity at 10 µM,RIPK2; [2],108%
same,remaining activity at 10 µM,RIPK2; [3],112%
same,remaining activity at 10 µM,SGK1; [1],99.7%
same,remaining activity at 10 µM,SGK1; [2],99%
same,remaining activity at 10 µM,SGK1; [3],100%
same,remaining activity at 10 µM,SLK/STK2; [1],86.9%
same,remaining activity at 10 µM,SLK/STK2; [2],85.3%
same,remaining activity at 10 µM,SLK/STK2; [3],88.5%
same,remaining activity at 10 µM,ZAK/MLTK; [1],105%
same,remaining activity at 10 µM,ZAK/MLTK; [2],106%
same,remaining activity at 10 µM,ZAK/MLTK; [3],104%
